Data reported in patent US20040191297A1, “Carotenoid formulation” (priority 1997, published 2004).

What was measured:
retinol = experiment: Liver vitamin A assay; format: in vivo, Fischer 344 rats; conditions: for Liver retinol: female
From the text: The effect of the tomato carotenoid supplement on the absorption and storage of two important fat soluble vitamins, namely, retinol and α-tocopherol, was investigated. Using established HPLC methods, a strong liner dose-response relationship was found between the lycopene content of the liver and both retinol and a-tocopherol concentration in female R-344 rats (Table 23).

[1] = Lycopene content of rat prostate gland; format: in vivo, Fischer 344 rats; conditions: male
From the text: (§1) homogenized. […] This hexane extraction procedure was repeated 5-7 times.

α-tocopherol = experiment: Liver vitamin E assay; format: in vivo, Fischer 344 rats
[2] = Lycopene content of rat mammary gland; format: in vivo, Fischer 344 rats; conditions: female
From the text: as §1

[3] = Preliminary feeding study, one male rat, 3 weeks; format: in vivo; conditions: 2.5 mM/kg diet
Experimental: One male rat was fed 2.5 mM lycopene (+other carotenoids)/kg diet for a period of 3 weeks. At this high dose, no change in body weight or food consumption was seen. […] The tail was brown. At necropsy, the liver was a deep red, as was the cecum and small intestine.

In the case of `CC(C)=CCC/C(C)=C/C=C/C(C)=C/C=C/C(C)=C/C=C/C=C(C)/C=C/C=C(C)/C=C/C=C(\C)CCC=C(C)C` [Lycopene], the “difference in liver retinol between controls and the highest lycopene dose” value (retinol; female rats) is reported as 10 fold, the Liver retinol (retinol; Group 1, lycopene 1280 mg/kg diet) is reported as 1302 μg/gm and the Liver retinol (retinol; Group 2, lycopene 512 mg/kg diet) is reported as 768 μg/gm. For the same compound, the Liver retinol (retinol; Group 3, lycopene 256 mg/kg diet) was 858 μg/gm, the Liver retinol (retinol; Group 4, lycopene 128 mg/kg diet) was 888 μg/gm and the Liver retinol (retinol; Group 5, lycopene 51 mg/kg diet) was 555 μg/gm. The “Lycopene content of prostate gland, Median” value ([1]; Group 1 (1280 mg/kg diet)) was 99 ng/g, the “Lycopene content of prostate gland, Range” value ([1]; Group 1 (1280 mg/kg diet)) was 79 to 112 ng/g and the “Lycopene content of prostate gland, mean ± SD” value ([1]; Group 1 (1280 mg/kg diet)) was 97 ± 17 ng/g. For the same compound, the “Lycopene content of prostate gland, Median” value ([1]; Group 2 (512 mg/kg diet)) was 83 ng/g, the “Lycopene content of prostate gland, Range” value ([1]; Group 2 (512 mg/kg diet)) was 54 to 147 ng/g and the “Lycopene content of prostate gland, mean ± SD” value ([1]; Group 2 (512 mg/kg diet)) was 95 ± 48 ng/g. For the same compound, the “Lycopene content of prostate gland, Median” value ([1]; Group 3 (256 mg/kg diet)) was 35 ng/g, the “Lycopene content of prostate gland, Range” value ([1]; Group 3 (256 mg/kg diet)) was 23 to 93 ng/g and the “Lycopene content of prostate gland, mean ± SD” value ([1]; Group 3 (256 mg/kg diet)) was 50 ± 37 ng/g. The “Lycopene content of prostate gland, Median” value ([1]; Group 4 (128 mg/kg diet)) was 52 ng/g, the “Lycopene content of prostate gland, Range” value ([1]; Group 4 (128 mg/kg diet)) was 26 to 77 ng/g and the “Lycopene content of prostate gland, mean ± SD” value ([1]; Group 4 (128 mg/kg diet)) was 52 ± 26 ng/g. For the same compound, the “Lycopene content of prostate gland, Median” value ([1]; Group 5 (51 mg/kg diet)) was 47 ng/g, the “Lycopene content of prostate gland, Range” value ([1]; Group 5 (51 mg/kg diet)) was 32 to 63 ng/g and the “Lycopene content of prostate gland, mean ± SD” value ([1]; Group 5 (51 mg/kg diet)) was 47 ± 16 ng/g. For the same compound, the “Liver α-tocopherol” value (α-tocopherol; female, Group 2, lycopene 512 mg/kg diet) was 38 μg/gm, the “Liver α-tocopherol” value (α-tocopherol; male, Group 7, lycopene 1280 mg/kg diet) was 28 μg/gm and the “Liver α-tocopherol” value (α-tocopherol; male, Group 8, lycopene 512 mg/kg diet) was 8 μg/gm. For the same compound, the “Liver α-tocopherol” value (α-tocopherol; male, Group 9, lycopene 256 mg/kg diet) was 23 μg/gm, the “Liver α-tocopherol” value (α-tocopherol; male, Group 11, lycopene 51 mg/kg diet) was 14 μg/gm and the “Lycopene content of mammary gland, Median” value ([2]; Group 1 (1280 mg/kg diet)) was 235 ng/g. The “Lycopene content of mammary gland, Range” value ([2]; Group 1 (1280 mg/kg diet)) was 232 to 460 ng/g, the “Lycopene content of mammary gland, mean ± SD” value ([2]; Group 1 (1280 mg/kg diet)) was 309 ± 131 ng/g and the “Lycopene content of mammary gland, Median” value ([2]; Group 2 (512 mg/kg diet)) was 197 ng/g. The “Lycopene content of mammary gland, Range” value ([2]; Group 2 (512 mg/kg diet)) was 172 to 231 ng/g, the “Lycopene content of mammary gland, mean ± SD” value ([2]; Group 2 (512 mg/kg diet)) was 200 ± 030 ng/g and the “Lycopene content of mammary gland, Median” value ([2]; Group 3 (256 mg/kg diet)) was 220 ng/g. The “Lycopene content of mammary gland, Range” value ([2]; Group 3 (256 mg/kg diet)) was 139 to 282 ng/g, the “Lycopene content of mammary gland, mean ± SD” value ([2]; Group 3 (256 mg/kg diet)) was 215 ± 062 ng/g and the “Lycopene content of mammary gland, Median” value ([2]; Group 4 (128 mg/kg diet)) was 217 ng/g. The “Lycopene content of mammary gland, Range” value ([2]; Group 4 (128 mg/kg diet)) was 181 to 288 ng/g, the “Lycopene content of mammary gland, mean ± SD” value ([2]; Group 4 (128 mg/kg diet)) was 229 ± 054 ng/g and the “Lycopene content of mammary gland, Median” value ([2]; Group 5 (51 mg/kg diet)) was 143 ng/g. The “Lycopene content of mammary gland, Range” value ([2]; Group 5 (51 mg/kg diet)) was 139 to 239 ng/g, the “Lycopene content of mammary gland, mean ± SD” value ([2]; Group 5 (51 mg/kg diet)) was 174 ± 057 ng/g and the “change in body weight or food consumption” value [3] was “no change”.
